Biological target: P. falciparum apicoplast DNA polymerase (Pf-apPOL) (Plasmodium falciparum, UniProt Q8ILY1)
Assay: Fluorescence-based high-throughput DNA polymerase assay (molecular beacon), primary screen and dose-response
Assay type: biochemical
Conditions: for DNA Pol: 90 min, 10 µM
Protocol: The HT assay employs a molecular beacon, a stem-loop DNA template with a Cy3 dye and the Black Hole Quencher on the 3′ and 5′ ends of the DNA, respectively. Pf-apPOL concentration is based on a calculated absorptivity of ε280 = 56750 M^−1 cm^−1. Reactions were carried out at 25 °C, using Corning 3575 […] (well-volume, 20 µL). Assays testing for compound inhibition composed of reaction buffer (pH 7.9 in 50 mM potassium acetate, 20 mM Tris-acetate and 10 mM magnesium acetate), Pf-apPOL (20 nM), DNA substrate (20 nM), dNTPs (6 µM), and compound (10 µM in DMSO). The DNA and nucleotide substrates (dNTPs) were at concentrations of 20 nM and 6 µM, respectively, in the assay. Pf-apPOL was incubated in the reaction buffer with dNTPs and the compound of interest (10 µM, in the assay) at 25 °C for 10 min. The DNA substrate was then added and the reaction was allowed to proceed for 90 min at 25 °C.
Each assay plate contained 16 negative controls (no Pf-apPOL, DMSO present) and 16 positive controls (Pf-apPOL present, no DMSO). The fluorescence of each well was determined using a BioTek Synergy Neo fluorescence plate reader using excitation and emission wavelengths of 555 and 570 nm, respectively.
In the above, Min is the average of fluorescence emission of the negative controls (substrate only), Max the average fluorescence emission from the positive controls (enzyme + substrate), and Test the emission from the assays in the presence of compounds (enzyme + compound + substrates). […] […] The IC50 of each compound was determined using Equation (2): (2) IC50= Vmax/(1+ (I/IC50)^n)
In the above, n measures cooperativity, with n > 1 indicating synergistic binding of more than a single molecule of the compound.
To identify apPOL inhibitors we utilised our previously developed high-throughput DNA polymerase assay. The HT assay is based on a molecular beacon DNA template that forms a stem-loop with a Cy3 dye and the Black Hole Quencher on the 3′ and 5′ ends of the DNA, respectively. DNA polymerase activity extends an annealed primer through the stem region, displacing the fluorophore from the quencher, thereby increasing its fluorescence (Figure 1(A)). The assay accurately recapitulates the kinetic behaviour of apPOL, as measured through more conventional low-throughput gel-based assays. The Z′ factor for the assay described here was 0.9 across all plates (data not shown).
Figure 1. High-throughput screening. (A) The fluorescent-based DNA polymerase assay used to screen the compound libraries. The DNA template strand is a hairpin loop with a primer annealed to the loop. The 3’ end of the primer is 11 bases away from the 6 bp duplex. Strand displacement activity of the DNA polymerase separates the Cy3 dye from the Black hole quencher leading to an increase in fluorescent signal. (B) The high-throughput assay workflow. The DNA polymerase is incubated with […] compound for 10 min prior to addition of the hairpin substrate. The reaction is quenched at 3 different time points and the fluorescent signal is measured and % inhibition is determined using the provided equation.

Chain of P. falciparum apicoplast DNA polymerase (Pf-apPOL) (Q8ILY1 entry or part of it): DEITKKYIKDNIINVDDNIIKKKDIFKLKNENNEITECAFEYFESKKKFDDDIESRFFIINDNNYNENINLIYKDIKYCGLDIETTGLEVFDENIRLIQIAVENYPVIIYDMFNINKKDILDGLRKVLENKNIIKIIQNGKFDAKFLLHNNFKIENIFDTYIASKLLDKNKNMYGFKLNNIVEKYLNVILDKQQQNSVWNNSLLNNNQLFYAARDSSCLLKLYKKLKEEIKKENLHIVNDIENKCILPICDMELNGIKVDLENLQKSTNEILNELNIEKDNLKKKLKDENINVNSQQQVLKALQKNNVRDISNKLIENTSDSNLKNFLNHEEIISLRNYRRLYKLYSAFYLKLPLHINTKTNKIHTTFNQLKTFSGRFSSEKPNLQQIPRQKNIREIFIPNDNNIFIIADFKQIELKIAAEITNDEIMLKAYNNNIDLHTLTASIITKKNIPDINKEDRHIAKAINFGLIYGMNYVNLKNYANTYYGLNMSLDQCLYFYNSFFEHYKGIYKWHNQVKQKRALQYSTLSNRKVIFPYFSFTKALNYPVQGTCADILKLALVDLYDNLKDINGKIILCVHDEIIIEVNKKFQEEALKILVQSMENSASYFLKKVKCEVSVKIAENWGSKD

Question: How did the “DNA Pol” value ('DNA Pol', screening value, unit not given) turn out when CN1CC(=Cc2ccco2)C(=O)C(=Cc2ccco2)C1 [Molecule 65, CN1CC(=Cc2ccco2)C(=O)C(=Cc2ccco2)C1] was run?
Answer: The value was 69.

Question: And the “% inhibition Apo pol 10'” value (DRC-1, concentration 2.5)?
Answer: The value was 22.1284%.

Question: And the “% inhibition Apo pol 10'” value (DRC-1, concentration 5)?
Answer: Its value is 42.6789%.

Question: What about the “% inhibition Apo pol 10'” value (DRC-1, concentration 10) of the same molecule?
Answer: The value was 54.6654%.

Question: And the “% inhibition Apo pol 10'” value (DRC-1, concentration 20)?
Answer: The value was 60.4298%.

Question: What about the “% inhibition Apo pol 10'” value (DRC-1, concentration 40) of the same molecule?
Answer: The value was 67.6613%.

Question: And the “% inhibition Apo pol 10'” value (DRC-1, concentration 80)?
Answer: The value was 69.4432%.

Question: What about the “% inhibition Apol 90'” value (DRC-1, 90', concentration 2.5) of the same molecule?
Answer: The value was 10.4669%.

Question: What about the “% inhibition Apol 90'” value (DRC-1, 90', concentration 5) of the same molecule?
Answer: The value was 22.0675%.

Question: And the “% inhibition Apol 90'” value (DRC-1, 90', concentration 10)?
Answer: Its value is 32.2145%.

Question: What about the “% inhibition Apol 90'” value (DRC-1, 90', concentration 20) of the same molecule?
Answer: The value was 39.744%.

Question: What about the “% inhibition Apol 90'” value (DRC-1, 90', concentration 40) of the same molecule?
Answer: Its value is 50.5992%.

Question: What about the “% inhibition Apol 90'” value (DRC-1, 90', concentration 80) of the same molecule?
Answer: Its value is 58.0625%.

Question: What about the “% inhibition apPOL 180'” value (DRC-1, 180', concentration 2.5) of the same molecule?
Answer: The value was 4.595%.

Question: And the “% inhibition apPOL 180'” value (DRC-1, 180', concentration 5)?
Answer: The value was 8.893%.

Question: What about the “% inhibition apPOL 180'” value (DRC-1, 180', concentration 10) of the same molecule?
Answer: The value was 17.702%.

Question: What about the “% inhibition apPOL 180'” value (DRC-1, 180', concentration 20) of the same molecule?
Answer: Its value is 24.3352%.

Question: What about the “% inhibition apPOL 180'” value (DRC-1, 180', concentration 40) of the same molecule?
Answer: The value was 38.0441%.

Question: What about the “% inhibition apPOL 180'” value (DRC-1, 180', concentration 80) of the same molecule?
Answer: The value was 50.1748%.

Question: And the “% inhibition Apo pol 5'” value (DRC-2, 5', concentration 2.5)?
Answer: Its value is 27%.

Question: And the “% inhibition Apo pol 5'” value (DRC-2, 5', concentration 5)?
Answer: Its value is 34%.

Question: What about the “% inhibition Apo pol 5'” value (DRC-2, 5', concentration 10) of the same molecule?
Answer: The value was 42%.

Question: And the “% inhibition Apo pol 5'” value (DRC-2, 5', concentration 20)?
Answer: Its value is 45%.

Question: What about the “% inhibition Apo pol 5'” value (DRC-2, 5', concentration 40) of the same molecule?
Answer: The value was 49%.

Question: What about the “% inhibition Apo pol 5'” value (DRC-2, 5', concentration 80) of the same molecule?
Answer: The value was 47%.

Question: And the “% inhibition Apol 40'” value (DRC-2, 40', concentration 2.5)?
Answer: Its value is 21%.

Question: And the “% inhibition Apol 40'” value (DRC-2, 40', concentration 5)?
Answer: The value was 27%.

Question: And the “% inhibition Apol 40'” value (DRC-2, 40', concentration 10)?
Answer: Its value is 37%.

Question: And the “% inhibition Apol 40'” value (DRC-2, 40', concentration 20)?
Answer: Its value is 43%.

Question: What about the “% inhibition Apol 40'” value (DRC-2, 40', concentration 40) of the same molecule?
Answer: Its value is 52%.

Question: And the “% inhibition Apol 40'” value (DRC-2, 40', concentration 80)?
Answer: Its value is 55%.

Question: What about the “% inhibition ApPOL 90'” value (DRC-2, 90', concentration 2.5) of the same molecule?
Answer: Its value is 17%.

Question: And the “% inhibition ApPOL 90'” value (DRC-2, 90', concentration 5)?
Answer: The value was 21%.

Question: And the “% inhibition ApPOL 90'” value (DRC-2, 90', concentration 10)?
Answer: The value was 32%.

Question: And the “% inhibition ApPOL 90'” value (DRC-2, 90', concentration 20)?
Answer: Its value is 38%.

Question: And the “% inhibition ApPOL 90'” value (DRC-2, 90', concentration 40)?
Answer: Its value is 50%.

Question: And the “% inhibition ApPOL 90'” value (DRC-2, 90', concentration 80)?
Answer: Its value is 56%.

Question: What about the “% inhibition apPOL 180'” value (DRC-2, 180', concentration 2.5) of the same molecule?
Answer: The value was 8%.

Question: What about the “% inhibition apPOL 180'” value (DRC-2, 180', concentration 5) of the same molecule?
Answer: Its value is 8%.

Question: What about the “% inhibition apPOL 180'” value (DRC-2, 180', concentration 10) of the same molecule?
Answer: Its value is 20%.

Question: And the “% inhibition apPOL 180'” value (DRC-2, 180', concentration 20)?
Answer: The value was 28%.

Question: And the “% inhibition apPOL 180'” value (DRC-2, 180', concentration 40)?
Answer: The value was 42%.

Question: And the “% inhibition apPOL 180'” value (DRC-2, 180', concentration 80)?
Answer: Its value is 54%.

Question: What about the “% inhibition Apo pol 5'” value (conc 2.5 (unit not given), 5', DRC-2) of the same molecule?
Answer: Its value is 27%.

Question: And the “% inhibition Apol 40'” value (conc 2.5 (unit not given), 40', DRC-2)?
Answer: Its value is 21%.

Question: And the “% inhibition apPOL 180'” value (conc 2.5 (unit not given), 180', DRC-2)?
Answer: The value was 8%.

Question: What about the “% inhibition Apol 40'” value (conc 5 (unit not given), 40', DRC-2) of the same molecule?
Answer: The value was 27%.

Question: And the “% inhibition ApPOL 90'” value (conc 5 (unit not given), 90', DRC-2)?
Answer: Its value is 21%.

Question: What about the “% inhibition apPOL 180'” value (conc 5 (unit not given), 180', DRC-2) of the same molecule?
Answer: The value was 8%.

Question: And the “% inhibition Apo pol 5'” value (conc 10 (unit not given), 5', DRC-2)?
Answer: Its value is 42%.

Question: And the “% inhibition apPOL 180'” value (conc 40 (unit not given), 180', DRC-2)?
Answer: The value was 42%.

Question: What about the “DNA Pol” value (primary screen hit value, DNA Pol (186 hits)) of the same molecule?
Answer: The value was 69.

Source: PMC9090415, “Discovery of small molecule inhibitors of Plasmodium falciparum apicoplast DNA polymerase” (Journal of Enzyme Inhibition and Medicinal Chemistry, 2022)
